Results taken from PMC9609098, “Xanthine Oxidase Inhibitory Activity and Chemical Composition of Pistacia chinensis Leaf Essential Oil” (Pharmaceutics, 2022).
≈ marks a conversion by molar mass, not a printed value. Read-outs that look alike come from different tables or passages of the source.

Legend:
xanthine oxidase [1] = biological target: T1, xanthine oxidase (Homo sapiens, UniProt P47989); settings: cited from earlier work
xanthine oxidase [2] = biological target: T1, xanthine oxidase; experiment: Enzyme kinetic study (Lineweaver–Burk plot); settings: for Inhibition type on xanthine oxidase: both substrates, hypoxanthine and xanthine
[3] = biological target: xanthine oxidase (EC 1.1.3.22) (Homo sapiens, UniProt P47989); experiment: biochemical; assay type: biochemical; settings: for IC50: read-out: IC50 against xanthine oxidase (converted)
Experimental: Xanthine oxidase inhibitory activity of specimens was evaluated by using in vitro spectrophotometric analysis. Both hypoxanthine and xanthine were used as the substrate in the assay, respectively. We added 117 µL of potassium phosphate buffer (50 mM, pH 7.8), 3 µL of specimen solution, and 60 µL of 0.025 unit/mL xanthine oxidase (EC 1.1.3.22) and mixed well in a 96-well microplate, and the mixture was incubated for 10 min at room temperature (25 °C). We added 100 µL of 0.15 mM substrate (hypoxanthine/xanthine) into the well, and the solution was incubated in the dark for 30 min at 37 °C. Then, 20 µL of 1 N HCl was added to stop the reaction. Absorbance at 290 nm of each well was measured using an ELISA (enzyme-linked immunosorbent assay) microplate reader (SPECTROstar Nano, BMG LABTECH, Offenburg, Germany) after incubation. […] All the experiments were performed in triplicate. Inhibition of the xanthine oxidase inhibitory activity was determined by the following formula: Inhibition (%) = [(Acontrol − Acontrol’s blank) − (Asample − Asample’s blank)/(Acontrol − Acontrol’s blank)] × 100. The IC50, half maximal inhibitory concentration, was calculated from the concentration-response curve of the specimen.

xanthine oxidase [4] = biological target: T1, xanthine oxidase; settings: cited from earlier work; remark: listed apart in the source
[5] = Hypoxanthine as the substrate, read-out: IC50 xanthine oxidase inhibition (converted)

Sequence of xanthine oxidase (EC 1.1.3.22) (P47989 whole entry, species assumed): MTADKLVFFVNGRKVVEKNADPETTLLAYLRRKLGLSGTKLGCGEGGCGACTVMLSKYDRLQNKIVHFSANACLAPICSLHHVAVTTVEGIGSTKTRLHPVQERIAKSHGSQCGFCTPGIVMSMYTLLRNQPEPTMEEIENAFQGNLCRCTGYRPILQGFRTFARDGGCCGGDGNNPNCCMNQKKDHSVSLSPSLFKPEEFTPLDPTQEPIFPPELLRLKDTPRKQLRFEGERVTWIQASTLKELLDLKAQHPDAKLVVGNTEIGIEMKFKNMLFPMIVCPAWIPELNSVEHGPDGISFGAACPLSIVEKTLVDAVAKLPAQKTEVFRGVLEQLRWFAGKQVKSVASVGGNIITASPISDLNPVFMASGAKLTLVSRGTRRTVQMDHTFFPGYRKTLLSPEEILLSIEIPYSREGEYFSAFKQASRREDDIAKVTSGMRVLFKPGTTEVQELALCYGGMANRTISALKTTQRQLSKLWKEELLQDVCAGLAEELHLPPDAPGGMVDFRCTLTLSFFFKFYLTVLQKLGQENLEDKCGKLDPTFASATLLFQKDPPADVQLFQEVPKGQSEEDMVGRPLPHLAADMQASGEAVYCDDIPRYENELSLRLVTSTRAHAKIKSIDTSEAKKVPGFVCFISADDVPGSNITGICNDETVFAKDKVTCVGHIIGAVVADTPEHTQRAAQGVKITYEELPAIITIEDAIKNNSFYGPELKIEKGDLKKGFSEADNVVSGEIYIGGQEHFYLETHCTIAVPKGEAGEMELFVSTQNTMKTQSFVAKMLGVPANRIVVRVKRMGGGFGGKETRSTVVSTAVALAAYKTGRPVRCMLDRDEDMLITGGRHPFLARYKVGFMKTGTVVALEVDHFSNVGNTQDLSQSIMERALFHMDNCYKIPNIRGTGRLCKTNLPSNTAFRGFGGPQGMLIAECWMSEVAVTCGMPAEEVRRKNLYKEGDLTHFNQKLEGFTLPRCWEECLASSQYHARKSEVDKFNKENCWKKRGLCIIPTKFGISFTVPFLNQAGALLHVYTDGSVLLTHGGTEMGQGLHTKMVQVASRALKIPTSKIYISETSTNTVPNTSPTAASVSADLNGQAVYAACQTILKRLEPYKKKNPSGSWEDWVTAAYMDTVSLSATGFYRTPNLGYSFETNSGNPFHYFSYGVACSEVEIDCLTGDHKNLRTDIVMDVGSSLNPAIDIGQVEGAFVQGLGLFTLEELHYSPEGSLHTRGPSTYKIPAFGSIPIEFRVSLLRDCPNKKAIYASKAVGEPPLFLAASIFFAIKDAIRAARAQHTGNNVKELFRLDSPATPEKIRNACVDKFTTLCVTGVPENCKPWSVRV
T1 sequence (P47989 whole entry, species assumed): as above

In the case of `Oc1ncnc2[nH]ncc12` [Allopurinol, reference compound], the “Inhibition type against xanthine oxidase” value (xanthine oxidase [1]) is listed as “competitive-type inhibition”, the “Inhibition Type” value (xanthine oxidase [2]; Hypoxanthine as the substrate) is listed as “Competitive” and the Vmax (xanthine oxidase [2]; Hypoxanthine substrate, inhibitor 0.313 μg/mL) is listed as 0.00025. The Vmax (xanthine oxidase [2]; Hypoxanthine substrate, inhibitor 0.625 μg/mL) was 0.00024, the Vmax (xanthine oxidase [2]; Hypoxanthine substrate, inhibitor 1.250 μg/mL) was 0.00024 and the Vmax (xanthine oxidase [2]; Hypoxanthine substrate, inhibitor 2.500 μg/mL) was 0.00024. The “Inhibition Type” value (xanthine oxidase [2]; Xanthine as the substrate) was “Competitive”, the Vmax (xanthine oxidase [2]; Xanthine substrate, inhibitor 0.313 μg/mL) was 0.00026 and the Vmax (xanthine oxidase [2]; Xanthine substrate, inhibitor 0.625 μg/mL) was 0.00026. For the same compound, the Vmax (xanthine oxidase [2]; Xanthine substrate, inhibitor 1.250 μg/mL) was 0.00025, the Vmax (xanthine oxidase [2]; Xanthine substrate, inhibitor 2.500 μg/mL) was 0.00026 and the “Inhibition type on xanthine oxidase” value (xanthine oxidase [2]) was “competitive”.

For `C=C(C)[C@H]1CC=C(C)CC1` [Limonene, limonene], the “IC50 against xanthine oxidase” value ([3]; Hypoxanthine as the substrate) was 37.69 ± 2.52 µg/mL (≈ 277 µM), the IC50 ([3]; Hypoxanthine as the substrate) was 280 µM and the “IC50 against xanthine oxidase” value ([3]; Xanthine as the substrate) was 48.04 ± 0.78 µg/mL (≈ 353 µM). For the same compound, the IC50 ([3]; Xanthine as the substrate) was 350 µM, the “Inhibition Type” value (xanthine oxidase [2]; Hypoxanthine as the substrate) was “Mixed” and the Vmax (xanthine oxidase [2]; Hypoxanthine substrate, inhibitor 40 μg/mL) was 0.00027. It also gave a Vmax (xanthine oxidase [2]; Hypoxanthine substrate, inhibitor 50 μg/mL) of 0.00025, a Vmax (xanthine oxidase [2]; Hypoxanthine substrate, inhibitor 100 μg/mL) of 0.00024 and a Vmax (xanthine oxidase [2]; Hypoxanthine substrate, inhibitor 200 μg/mL) of 0.00023. The “Inhibition Type” value (xanthine oxidase [2]; Xanthine as the substrate) was “Mixed”, the Vmax (xanthine oxidase [2]; Xanthine substrate, inhibitor 40 μg/mL) was 0.00029 and the Vmax (xanthine oxidase [2]; Xanthine substrate, inhibitor 50 μg/mL) was 0.00026. The Vmax (xanthine oxidase [2]; Xanthine substrate, inhibitor 100 μg/mL) was 0.00022, the Vmax (xanthine oxidase [2]; Xanthine substrate, inhibitor 200 μg/mL) was 0.0002 and the “Inhibition type on xanthine oxidase” value (xanthine oxidase [2]) was “mixed-type inhibitor”.

In the case of `O=P(O)(O)O[C@H]1[C@H](OP(=O)(O)O)[C@@H](OP(=O)(O)O)[C@H](OP(=O)(O)O)[C@@H](OP(=O)(O)O)[C@H]1OP(=O)(O)O` [phytic acid], the IC50 (xanthine oxidase [4]; Xanthine as the substrate, read-out: IC50 (inhibition of the formation of uric acid)) is given as roughly 30000 µM.

For `COC(=O)c1cc(C(=O)O)c[nH]1` [2-metyl ester-1H-pyrrole-4-carboxilyc acid], the “IC50 xanthine oxidase inhibition” value (xanthine oxidase [4]; Xanthine as the substrate) is listed as 48.86 µg/mL (≈ 289 µM).

In the case of `O=c1cc(-c2ccc(O)cc2)oc2cc(O)cc(O)c12` [apigenin], the IC50 (xanthine oxidase [4]; [5]) is listed as 130 µM.

For `CC1=CCC2C(C1)C2(C)C` (stereo not shown) [3-Carene, 3-carene], the IC50 ([3]; Hypoxanthine as the substrate) was 810 µM and the “activity against xanthine oxidase (in words)” value ([3]; Xanthine as the substrate) was “did not display activity”.

In the case of `O=c1c(O)c(-c2ccc(O)c(O)c2)oc2cc(O)cc(O)c12` [quercetin], the “Inhibition type against xanthine oxidase” value (xanthine oxidase [1]) is listed as “mixed type”.

In the case of `C[C@@H]1O[C@@H](OC[C@H]2O[C@@H](Oc3c(-c4ccc(O)c(O)c4)oc4cc(O)cc(O)c4c3=O)[C@H](O)[C@@H](O)[C@@H]2O)[C@H](O)[C@H](O)[C@H]1O` [rutin], the IC50 (xanthine oxidase [4]; [5]) is given as 99.9 µM.
